Data taken from US20180284095A1, “BIOMARKERS ASSOCIATED WITH LSD1 INHIBITORS AND USES THEREOF” (Oryzon Genomics, S.A., priority 2015, published 2018).

How the values were obtained:
Assay type in all cases: in vivo, mouse
[1] = system: TUBB2C; experiment: Microarray gene expression, brain of Hsd:ICR (CD1) mice, MTD study (Example 6), housekeeping gene; conditions: brain day 5, male CD1 mice pool
Description: (§1) Total RNA was extracted from samples using the RNeasy extraction kit (Qiagen). The quality and concentration of the RNA was analyzed using the Agilent 2100 bioanalyzer and NanoDrop™ ND-1000 (Thermo Scientific). Samples with RNA integrity number (RIN)<6.0 were discarded. Total RNA (0.5 μg) amplification and labelling with Cy3 or Cy5 was carried out using the Eberwein mRNA amplification procedure (Van Gelder et al, Proc Natl Acad Sci USA 1990, 87:1663-1667) employing the MessageAmp™ aRNA amplification kit from Ambion (Applied Biosystems) following the manufacturer's instructions with minor modifications. As hybridization controls, plant mRNAs were transcribed from a plasmid containing the Zea mays Xet (xyloglucan endo-transglycosylase) cDNA and from a plasmid containing the Zea mays Zmmyb42 cDNA, independently prepared Cy3 and Cy5 labelled aRNA from these two RNAs using the Eberwein mRNA amplification procedure (as disclosed in Cerdà et al, Gen Comp Endocrinol 2008, 156:470-481).
(§2) The Cy3- and Cy5-labelled cRNAs and spikes were combined and hybridized to the microarray described in Example 2.6 for 17 h at 60° C. using Agilent's gaskets G2534-60002, G2534A hybridization chambers and DNA Hybridization Oven G2545A, according to the manufacturer's instructions. More specifically, equal amounts of Cy3 and Cy5 labeled Xet aRNA as well as equal amounts of Cy3 and Cy5 labeled Zmmyb42 aRNA were spiked into each mixture hybridized to the array. Arrays were washed and raw data were obtained using Agilent's DNA Microarray Scanner G2505B and Feature Extraction software (v10.1). The raw fluorescence intensity data were processed using applicant's proprietary software, and consists in the following operations:
(§3) Data normalization was carried out by an improved version of the nonlinear Q-splines normalization method (Workman et al., Genome Biol 2002, 3(9):research0048.1-0048.16). Normalization results were presented graphically as MA plots, as first described by Dudoit et al (Dudoit et al, Statistica Sinica, 2002, 12:111-139). Each point corresponds to a probe of the DNA array. M values (vertical axis) are the log-differential expression ratios. A values (horizontal axis) are the log-intensities of the spots. M and A are calculated from the Cy5 and Cy3 intensity values as of each spot. The DNA Array data is normalized using an improved version of non-linear Q-Splines normalization described by Workman et al., Genome Biol 2002, 3(9):research0048.1-0048.16. This process is useful to correct the deviation of the M values from the statistical assumption that most of the spots have M=0 in MA plots. […]. The data used to calculate the normalization fitting curve is the totality of the raw measurement dataset, excluding the signals for the probes for the spiked-in plant RNA controls and negative controls. In order to be able to normalize properly the data among all the experiments, the probe-set must include an important group of genes that should have no change (M=0) in the experiment. The normalization function is then applied to all the data, including controls.
(§4) Normalized and log-transformed data were used to calculate log 2 (sample/control) and Fold Change (FC) values. No background subtraction was applied to the signal intensity values during data processing, permitting robust selection of differentially expressed genes with low expression levels at the cost of potential sub-estimation of change when intensity levels are close to the array background level.
(§5) Male Hsd:ICR (CD1®) mice were maintained in air- and temperature-controlled cages with regular supply of water and food. A maximum of 3 mice were raised per cage. Three mice were assigned to each group. Before the first administration, each mouse was labeled and weighed. Test compounds were administered orally using 1 ml syringes using animal feeding needles proper for mice at 10 ml/kg as follows. […]

[2] = system: TUBB3; experiment: as above; conditions: brain day 5, male CD1 mice pool
Description: as §1, §2, §3, §4, §5

[3] = system: SAMP8 mice; experiment: Platelet levels (hemogram) in SAMP8 mice
Description: It is known that LSD1 is implicated in normal hematopoiesis (SprDssel et al, Leukemia 2012, 26(9)2039-51). […] The mice were sacrificed and blood was collected in sodium citrate-containing tubes for hemogram analysis. Platelets levels were determined in a standard hematology analyzer (Abacus Junior Vet, from Diatron) following the manufacturer's instructions.

[4] = system: C57BL/6 mice; experiment: Experimental Autoimmune Encephalomyelitis (EAE) model, MOG35-55
Description: In particular, the murine EAE model as described herein, using MOG35-55 and C57BL/6 mice strain, is considered a validated preclinical model of the chronic progressive form of MS.
To induce chronic EAE by active immunization, C57BL/6 mice were immunized s.c. with 100 μg of myelin oligodendrocyte glycoprotein MOG35-55 emulsified in complete Freund's adjuvant (CFA) containing 4 mg/ml Mycobacterium tuberculosis H37 RA. Mice also received i.p. injections of 200 ng of pertussis toxin on days 0 and 2.
Mice were scored daily for signs of EAE according to the following clinical scoring system: 0, no clinical signs; 0.5, partial loss of tail tonicity; 1, complete loss of tail tonicity; 2, flaccid tail and abnormal gait; 3, hind leg paralysis; 4, hind leg paralysis with hind body paresis; 5, hind and fore leg paralysis; and 6, death.

[5] = 3 mg/kg oral x5 days vs vehicle
[6] = 10 mg/kg oral x5 days vs vehicle
[7] = 30 mg/kg oral x5 days vs vehicle
[8] = 100 mg/kg oral x5 days vs vehicle

Substance	Hybridization signal sample_Cy5 TUBB2C ([1]; 3 mg/kg oral x5 days)	log2 (sample/control) TUBB2C [1, 5]	Hybridization signal sample_Cy5 TUBB2C ([1]; 10 mg/kg oral x5 days)	log2 (sample/control) TUBB2C [1, 6]	Hybridization signal sample_Cy5 TUBB2C ([1]; 30 mg/kg oral x5 days)	log2 (sample/control) TUBB2C [1, 7]	Hybridization signal sample_Cy5 TUBB2C ([1]; 100 mg/kg oral x5 days)	log2 (sample/control) TUBB2C [1, 8]	Hybridization signal sample_Cy5 TUBB3 ([2]; 3 mg/kg oral x5 days)	log2 (sample/control) TUBB3 [2, 5]	Hybridization signal sample_Cy5 TUBB3 ([2]; 10 mg/kg oral x5 days)	log2 (sample/control) TUBB3 [2, 6]	Hybridization signal sample_Cy5 TUBB3 ([2]; 30 mg/kg oral x5 days)	log2 (sample/control) TUBB3 [2, 7]	Hybridization signal sample_Cy5 TUBB3 ([2]; 100 mg/kg oral x5 days)	log2 (sample/control) TUBB3 [2, 8]	further results
(+) 5-((((trans)-2-(4-(benzyloxy)phenyl)cyclopropyl)amino)methyl)-1,3,4-oxadiazol-2-amine [Compound 2]	5746.61	0.1908	5742.06	0.1179	6326.04	0.1798	3724.28	−0.3983	3650.69	0.09458	3706.64	−0.1239	4409.6	−0.002033	2253.74	−0.4338	
(−) 5-((((trans)-2-(4-(benzyloxy)phenyl)cyclopropyl)amino)methyl)-1,3,4-oxadiazol-2-amine [Compound 1]	5008.03	−0.03216	3965.09	−0.309	5060.07	0.03544	5579.26	0.0424	3553.16	−0.1852	2424.61	−0.5964	2911.46	−0.1102	3667.46	−0.02579	platelet levels ([3]; SAMP8, HD (3.2 mg/kg/day)): significant reduction of platelet levels; platelet levels ([3]; SAMP8, LD (0.96 mg/kg/day)): no significant reduction of platelet levels; platelet levels ([3]; SAMP8 males, 0.96 mg/kg/day, 16 weeks (4 months), vs vehicle-treated SAMP8, 0.96 mg/kg/day): no statistically significant effects; platelet levels ([3]; SAMP8 males, 0.96 mg/kg/day, 16 weeks (4 months), vs vehicle-treated SAMP8, listed as compound 1, 0.96 mg/kg/day): no changes in the platelet blood count; development of EAE, disease incidence and severity measured by daily clinical score ([4]; 1 or 3 mg/kg oral once a day, days 12-16 and 19-23 postimmunization): greatly inhibited the development of EAE; mice almost completely recovered ([4]; 40 days after disease onset): 30%; duration of protective effect ([4]; after cessation of the treatment): maintained for a long-period of time after cessation of the treatment; mice displaying mild symptoms ([4]; group treated with 1 or 3 mg/kg oral): 40-70%
